Test results reported in PMC4848466, “Insights into the activation mechanism of class I HDAC complexes by inositol phosphates” (Nature Communications, 2016).
pKd: −log10 of the molar value.

Legend:
Assay type in all cases: biochemical
[1] = target: T1, D99A HDAC1 mutant (Homo sapiens, UniProt Q13330+Q13547, D99A); test: Deacetylase activity of D99A HDAC1 mutant (electrophoretic mobility shift assay, caliper platform); conditions: addition of InsP6
T1 construct: Full-length HDAC1 and residues 162–354 of MTA1 were cloned into pcDNA3 vectors; residues 162–354 of MTA1 were cloned into pcDNA3 vectors; FLAG tag with TEV protease cleavage site (cleaved yes); made in house
T1 sequence (Q13547 whole entry D99A, the tested form may be a part): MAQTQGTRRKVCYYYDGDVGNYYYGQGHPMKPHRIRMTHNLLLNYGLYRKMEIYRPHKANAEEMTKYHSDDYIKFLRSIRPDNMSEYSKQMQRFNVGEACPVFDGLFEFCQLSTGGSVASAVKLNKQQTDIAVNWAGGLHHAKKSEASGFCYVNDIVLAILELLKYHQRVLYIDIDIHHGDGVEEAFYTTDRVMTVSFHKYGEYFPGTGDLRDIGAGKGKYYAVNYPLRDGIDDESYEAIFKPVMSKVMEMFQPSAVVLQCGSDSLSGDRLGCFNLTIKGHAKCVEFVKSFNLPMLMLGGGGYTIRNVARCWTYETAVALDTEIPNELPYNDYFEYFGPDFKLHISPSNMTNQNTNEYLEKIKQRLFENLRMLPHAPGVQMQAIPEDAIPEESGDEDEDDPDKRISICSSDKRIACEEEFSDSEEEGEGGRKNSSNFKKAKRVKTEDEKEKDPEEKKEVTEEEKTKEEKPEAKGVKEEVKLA
T1 sequence (Q13330 162-354): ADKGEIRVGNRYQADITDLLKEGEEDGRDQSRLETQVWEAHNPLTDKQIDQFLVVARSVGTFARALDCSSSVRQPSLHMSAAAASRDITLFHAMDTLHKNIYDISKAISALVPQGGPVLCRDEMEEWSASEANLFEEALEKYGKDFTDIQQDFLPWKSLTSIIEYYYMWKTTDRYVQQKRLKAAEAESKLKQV
Procedure: Figure 5 Inhibition of HDAC1:MTA1 by a novel peptide-based inhibitor. (a) Inhibition curve of HDAC1:MTA1 by the histone H4 peptide H4K16Hx. (b)The position of H4K16Hx (pink) bound to the active site of HDAC1 (purple). The sidechain of HDAC1 residue D99 undergoes a significant rearrangement (indicated by arrow) to coordinate binding of the peptide (apo-HDAC1 shown in grey). […] HDAC assays were performed using an electrophoretic mobility shift assay on the caliper platform. Error bars indicate±s.e.m. (n=3).

[2] = target: T2, HDAC1:MTA1 complex (Homo sapiens, UniProt Q13330+Q13547); test: Activation of HDAC1:MTA1 deacetylase activity by inositol phosphates (BOC-Lys-AMC assay)
T2 construct: Full-length HDAC1 and residues 162–354 of MTA1 were cloned into pcDNA3 vectors; residues 162–354 of MTA1 were cloned into pcDNA3 vectors; FLAG tag with TEV protease cleavage site (cleaved yes); made in house; host or cells: HEK293F cells (co-transfection, pcDNA3)
T2 sequence (Q13547 whole entry, the tested form may be a part): as the sequence (Q13547 whole entry D99A, the tested form may be a part) above, with A99D counted along it
T2 sequence (Q13330 162-354): as the sequence (Q13330 162-354) above
Procedure: (§1) HDAC activity of the protein complex was measured using an HDAC assay with a BOC-Lys-AMC substrate. 50 nM HDAC3:SMRT or 50 nM HDAC1:MTA1 was incubated with 100 μM BOC-Lys-AMC substrate in a final volume of 50 μl buffer A (50 mM Tris pH 7.5, 50 mM NaCl, 5% Glycerol), in a black 96-well plate for 30 min at 37 °C.
(§2) To test the ability of inositol phosphates and derivatives to activate the complex, 50 nM HDAC3:SMRT (which had been stripped of its endogenous co-purified inositol phosphate) or 50 nM HDAC1:MTA1 was incubated with inositol phosphate or analogue for 30 min at 37 °C before the HDAC activity was measured. All measurements were performed in triplicate and data analysed using GraphPad Prism (version 6.0, GraphPad Software, Inc).

[3] = target: T3, HDAC3:SMRT complex (Homo sapiens, UniProt O15379); test: Activation of HDAC3:SMRT deacetylase activity by inositol phosphates (BOC-Lys-AMC assay); conditions: BOC-Lys-AMC assay; one-site binding fit of HDAC activity vs inositol phosphate concentration; read-out: Kdapp (apparent Kd from activation titration)
T3 construct: Full-length HDAC3, and residues 350–480 of SMRT were cloned into pcDNA3 vectors; residues 350–480 of SMRT were cloned into pcDNA3 vectors; FLAG tag with TEV protease cleavage site (cleaved yes); made in house; host or cells: HEK293F cells (co-transfection, pcDNA3)
T3 sequence (O15379 whole entry, the tested form may be a part): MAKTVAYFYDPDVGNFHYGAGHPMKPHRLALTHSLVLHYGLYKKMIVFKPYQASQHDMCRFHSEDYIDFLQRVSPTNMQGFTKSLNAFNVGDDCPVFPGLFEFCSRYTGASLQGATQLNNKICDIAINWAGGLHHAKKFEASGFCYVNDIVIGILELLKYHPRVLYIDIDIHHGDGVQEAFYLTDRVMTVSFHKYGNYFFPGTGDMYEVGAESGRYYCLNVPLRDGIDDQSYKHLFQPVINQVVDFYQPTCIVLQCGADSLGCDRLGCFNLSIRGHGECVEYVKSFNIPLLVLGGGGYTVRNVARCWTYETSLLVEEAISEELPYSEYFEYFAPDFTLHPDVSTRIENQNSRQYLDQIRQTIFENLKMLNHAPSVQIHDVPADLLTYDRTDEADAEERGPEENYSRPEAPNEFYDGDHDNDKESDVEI
T3 sequence (Q9Y618 350-480, further chain): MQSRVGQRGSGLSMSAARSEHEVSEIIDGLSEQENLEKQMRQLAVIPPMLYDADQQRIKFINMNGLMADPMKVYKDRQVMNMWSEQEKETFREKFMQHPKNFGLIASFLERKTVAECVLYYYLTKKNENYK
Procedure: (§3) To understand the stereochemical basis underlying the activation of HDAC3 by inositol phosphates we investigated the ability of a range of inositol phosphates and derivatives to enhance the activity of HDAC3 in deacetylase assays. To achieve this we used an assay based on the complex of HDAC3 with an extended SMRT construct which is stable in the absence of inositol phosphate.
as §1, §2

[4] = target: T4, HDAC3:SMRT complex (Homo sapiens, UniProt O15379+Q9Y618); test: as above
T4 construct: Full-length HDAC3, and residues 350–480 of SMRT were cloned into pcDNA3 vectors; residues 350–480 of SMRT were cloned into pcDNA3 vectors; FLAG tag with TEV protease cleavage site (cleaved yes); made in house; host or cells: HEK293F cells (co-transfection, pcDNA3)
T4 sequence (O15379 whole entry, the tested form may be a part): as the sequence (O15379 whole entry, the tested form may be a part) above
T4 sequence (Q9Y618 350-480): as the sequence (Q9Y618 350-480, further chain) above
Procedure: as §3, §1, §2

[5] = target: T5, HDAC1:MTA1 (Homo sapiens, UniProt Q13330+Q13547); test: Michaelis-Menten enzyme kinetics on Caliper EZ Reader with H4K16ac peptide; conditions: H4 12–18K16ac peptide; in the presence of the inositol phosphate
T5 construct: Full-length HDAC1 and residues 162–354 of MTA1 were cloned into pcDNA3 vectors; residues 162–354 of MTA1 were cloned into pcDNA3 vectors; FLAG tag with TEV protease cleavage site (cleaved yes); made in house; host or cells: HEK293F cells (co-transfection, pcDNA3)
T5 sequence (Q13547 whole entry, the tested form may be a part): as the sequence (Q13547 whole entry D99A, the tested form may be a part) above, with A99D counted along it
T5 sequence (Q13330 162-354): as the sequence (Q13330 162-354) above
Source text: (§4) To explore further the differences between the two complexes we established a more physiological, real-time kinetic assay using substrates based on the tails of histones H4 and H3. The peptides tested were; H4 12–18(K16ac), H3 23–29(K27ac) and H3 6–12(K9ac). […] HDAC3:SMRT is most catalytically active against H3 23–29(K27ac) (Supplementary Fig. 7), whereas HDAC1:MTA1 is most catalytically active against H4 12–18(K16ac) (Fig. 4d). In both cases an approximate 3-fold greater kcat is observed for the preferred versus non-preferred substrate, in the absence of inositol phosphate. […] The net effect of both inositol phosphates tested was between a two and fivefold increase in catalytic efficiency (kcat/Km) (Fig. 4c,d, Supplementary Fig. 7).
(§5) Michaelis–Menten kinetics were determined using a HDAC assay on the Caliper EZ Reader II system (Caliper Life Sciences, http://www.caliperls.com). To assess the effect of inositol phosphate, 20 nM HDAC3:SMRT or 80 nM HDAC1:MTA1 were pre-mixed with InsP6 before dilution and addition of fluorescein-labelled H4K16Ac substrate. Reactions were carried out in duplicate in 30 μl reaction volumes, performed at room temperature in 50 mM Tris pH 7.5, 50 mM NaCl, 5% glycerol. Data was analysed using GraphPad Prism (version 6.0).

[6] = target: HDAC3:SMRT (Homo sapiens, UniProt O15379+Q9Y618); test: as above; set-up: Full-length HDAC3, and residues 350–480 of SMRT were cloned into pcDNA3 vectors; residues 350–480 of SMRT were cloned into pcDNA3 vectors; FLAG tag with TEV protease cleavage site (cleaved yes); made in house; host or cells: HEK293F cells (co-transfection, pcDNA3); conditions: H4 12–18K16ac peptide; in the presence of the inositol phosphate
Chain of HDAC3:SMRT (O15379 whole entry, the tested form may be a part): as the sequence (O15379 whole entry, the tested form may be a part) above
Chain of HDAC3:SMRT (Q9Y618 350-480): as the sequence (Q9Y618 350-480, further chain) above
Source text: as §4, §5

O=P(O)(O)O[C@H]1[C@H](OP(=O)(O)O)[C@@H](OP(=O)(O)O)[C@H](OP(=O)(O)O)[C@@H](OP(=O)(O)O)[C@H]1OP(=O)(O)O [InsP6, inositol hexaphosphate]
rescue of deacetylase activity of D99A mutant [1]: activity is not rescued
activation of HDAC1:MTA1 complex [2]: can be activated
pKd ([2]; read-out: Kdapp (apparent Kd from activation titration)): 5.40
pKd [3]: 6.22
HDAC3 activation relative to maximal Ins(1,4,5,6)P4-stimulated activity ([4]; BOC-Lys-AMC assay, titration / maximal activation): same degree as Ins(1,4,5,6)P4
increase in apparent affinity compared with Ins(1,4,5,6)P4 ([4]; ratio of apparent Kd values): 16 fold
kcat [5]: 1.01 s⁻¹
kcat [6]: 2.59 s⁻¹
